Source: patent publication US12145923B2, “Tetrahydroisoquinoline compound, preparation method therefor, pharmaceutical composition containing same, and use thereof” (SHANGHAI INSTITUTE OF MATERIA MEDICA, CHINESE ACADEMY OF …, priority 2018, dated 2024)
Where “and” joins values, the source holds several entries; their conditions need not be identical. Identical values can stand only once. Like-named read-outs stand apart in the source and are kept apart here.

Columns and labels:
[1] = Cytotoxicity on RAW 264.7 cells (CCK-8 method); format: cell-based, mouse; settings: mouse, RAW 264.7 cells; drug concentration required to cause median cytotoxicity, RAW 264.7
Method: (§1) Mouse RAW 264.7 cells were purchased from American Type Culture Collection (Manassas, VA, USA), and cultivated in DMEM culture medium (Hyclone, South Logan, UT, USA) containing 10% fetal bovine serum (Hyclone, South Logan, UT, USA). Cells were collected and counted before use, and inoculated in a 96-well plate (Corning, NY, USA) at 1×10^5/well. […] 20 μl of CCK-8 solution (Dojindo, Kumamoto, Japan) was added at 30 min before the end of the culture. After the cultivation was ended, the absorbance OD value was measured at 450 nm (reference 650 nm) on amicroplate reader (Molecular Devices, Sunnyvale, CA, USA). The toxicity of the compound on RAW 264.7 cells was calculated by dividing the OD value of the test sample by the OD value of the cell control well, which was labeled as the cell survival rate M %.

RAW 264.7 cells = experiment: Cytotoxicity on RAW 264.7 cells (CCK-8 method); format: cell-based, mouse
Method: as §1

[2] = tested on: acute inflammation model of mouse back air sac; experiment: Acute inflammation model of mouse back air sac (carrageenan); format: in vivo; settings: oral gavage 5 mg/kg
Method: On the first day of the experiment, mice were subcutaneously injected with 3 ml of air on the back, and subcutaneously injected with 1.5 ml of air on the back on day 3, and subcutaneously injected with 1 ml of 2% carrageenan (Sigma-Aldrich, St. Louis, MO, USA) on the back on day 6 for sensitization. 4 hours after sensitization, secretion in the air sac was lavaged with phosphate buffer solution. The lavage fluid was used for white blood cell count and inflammatory factor detection. […] Tumor necrosis factor-α and interleukin-6 detection kits were purchased from BD Pharmingen (San Diego, CA, USA).

[3] = target: Human PDE4D catalytic domain (Homo sapiens (Human), UniProt Q08499); experiment: Scintillation Proximity Assay (SPA), inhibition of PDE4D catalytic domain activity; format: biochemical; settings: for inhibition at 1 µM: read-out: PDE4D enzyme activity inhibition rate %
Sequence of Human PDE4D catalytic domain (Q08499 386-715): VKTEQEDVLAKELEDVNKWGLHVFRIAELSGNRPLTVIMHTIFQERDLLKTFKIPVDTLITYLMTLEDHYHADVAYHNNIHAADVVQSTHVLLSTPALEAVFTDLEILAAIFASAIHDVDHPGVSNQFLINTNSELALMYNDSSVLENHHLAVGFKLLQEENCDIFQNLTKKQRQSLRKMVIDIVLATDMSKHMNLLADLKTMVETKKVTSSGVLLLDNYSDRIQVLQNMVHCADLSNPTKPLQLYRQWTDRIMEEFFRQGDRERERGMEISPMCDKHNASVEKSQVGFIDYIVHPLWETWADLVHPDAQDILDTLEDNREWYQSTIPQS
Method: The scintillation Proximity Assay (SPA) method was used to determine the inhibitory effect of compounds on the activity of PDE4D catalytic domain. Human PDE4D catalytic domain protein was obtained by expression and purification in E. coli. […] [^3H]-cAMP, scintillation beads (RPNQO150, Perkin Elmer), and 96-well scintillation microplates (Isoplate-96, Perkin Elmer) were purchased from Perkin Elmer Company.
Finally, 10 μl [^3H]-cAMP (0.005 μCi/μl) was added and incubated for 30 min at 30° C. in a water bath. 50 μl SPA beads was added to quench the reaction, shaked appropriately, and stood for 20 minutes. A microplate scintillation counter was used.

TNF-α secretion in PBMC = experiment: Inhibition of LPS-stimulated TNF-α secretion in PBMC (ELISA); format: cell-based; settings: Homo sapiens, read-out: Inhibition rate %
From the text: According to the difference in cell density in human blood, PBMC (peripheral blood mononuclear cell, PBMC) was directly separated and purified by gradient centrifugation using lymphocyte separation fluid. The cell type was mononuclear cells in blood, mainly including lymphocytes (T/B), monocytes, macrophages, dendritic cells and other minor cell types, of which lymphocytes account for a large part, which can directly in vitro simulate the blood immune environment.
PBMC cells isolated from human blood were implanted into 96-well plates at 2*10^5/ml; compounds in gradients were added, with at least three replicates for each gradient; After the PBMCs were incubated at 37° C., 5% CO2 for 1 hour, LPS was added (the final concentration was 10 ug/ml) to stimulate PBMC to express TNF-α, and incubated for another 18-20 h at 37° C., 5% C02. The 96-well plate was collected. The background control with no stimulant and stimulation control wells were also set, with a total volume of 200 μl. The culture supernatant was collected by centrifugation, and the expression level of TNF-α in the culture supernatant was detected by ELISA.

[4] = tested on: tumor necrosis factor-α secretion in RAW 264.7 cells; experiment: Inhibition of LPS-stimulated tumor necrosis factor-α secretion in RAW 264.7 cells (ELISA); format: cell-based, mouse; settings: Mus musculus, RAW264.7, 4 h, read-out: Tumor necrosis factor-α inhibition rate/%
Method: After the activation by bacterial lipopolysaccharide (LPS), various inflammatory mediators such as tumor necrosis factor-α will be released; Phosphodiesterase PDE4 is also expressed in macrophages, and the inhibitory activity of the compound on phosphodiesterase PDE4 can be reflected by detecting the secretion of tumor necrosis factor-α.
Under the stimulation of 1 μg/ml LPS (L5886, Sigma, St. Louis, MO, USA), the cells were cultured in a 37° C., 5% CO2 incubator for 4 h. The background control with no stimulant and stimulation control wells were also set, with a total volume of 200 μl. The culture supernatant was collected by centrifugation, and the secretion level of tumor necrosis factor-α in the culture supernatant was detected by enzyme-linked immunosorbent assay. The tumor necrosis factor-α detection kit was purchased from BD Pharmingen (San Diego, CA, USA).

[5] = PDE4D, unit given as mM, read-out: IC50

SMILES | inhibition at 1 µM ([3]; Compound concentration: 1 μM) | Cell survival rate/% (RAW 264.7 cells; RAW 264.7, 0.5 μM) | Cell survival rate/% (RAW 264.7 cells; RAW 264.7, 5 μM) | Cell survival rate/% (RAW 264.7 cells; RAW 264.7, 50 μM) | inhibition at 1 µM (TNF-α secretion in PBMC; TNF-α secretion in PBMC, 1 μM) | inhibition at 10 µM (TNF-α secretion in PBMC; TNF-α secretion in PBMC, 10 μM) | inhibition at 0.5 µM ([4]; RAW 264.7, 0.5 μM) | inhibition at 5 µM ([4]; RAW 264.7, 5 μM) | inhibition at 50 µM ([4]; RAW 264.7, 50 μM) | further results
COc1cc2c(cc1OC)[C@H](CCc1c[nH]c3ccccc13)N(C=O)CC2 [(S)-A1, (S)-1-(2-(1H-indol-3-yl)ethyl)-6,7-dimethoxy-3,4-dihydroisoquinoline-2(1H)-formaldehyde] |  | 112.3% and 103% | 126.4% and 100.2% | 88.8% and 102% |  |  |  |  |  | CC50 at 4 h [1]: > 50 µM
COc1cc2c(cc1OC)[C@H](CCc1c[nH]c3cc(C)ccc13)N(C=O)CC2 [(S)-C5, (S)-6,7-dimethoxy-1-(2-(6-methyl-1H-indol-3-yl)ethyl)-3,4-dihydroisoquinoline-2(1H)-formaldehyde] |  | 98% | 109.4% | 93.4% |  |  |  |  |  | secretion level of interleukin-6 in lavage [2]: reduce; secretion level of tumor necrosis factor-α in lavage [2]: reduce; inflammatory response ([2]; 24 h and 1 h before sensitization): significantly reduce
COc1cc2c(cc1OC1CCCC1)C(CCc1c[nH]c3ccc(Br)cc13)N(C=O)CC2 (stereo not drawn) [Compound C1, 1-(2-(5-bromo-1H-indol-3-yl)ethyl)-7-(cyclopentyloxy)-6-methoxy-3,4-dihydroisoquinoline-2(1H)-formaldehyde] |  | 100.9% | 125.1% | 110.5% |  |  |  |  |  | IC50 [3]: 0.0015 mM; inhibition at 1 µM [3]: 26.4%; inhibition at 1 µM (TNF-α secretion in PBMC; PBMC): 27.1%; inhibition at 10 µM (TNF-α secretion in PBMC; PBMC): 72.4%; inhibition at 0.5 µM [4]: 2.8%; inhibition at 5 µM [4]: -5.2%; inhibition at 50 µM [4]: 33.7%
COc1cc2c(cc1OC1CCCC1)[C@H](CCc1c[nH]c3cc(C)ccc13)N(C=O)CC2 [(S)-C3, (S)-7-(cyclopentyloxy)-6-methoxy-1-(2-(6-methyl-1H-indol-3-yl)ethyl)-3,4-dihydroisoquinoline-2(1H)-formaldehyde] | 24.1% | 88.2% | 100% | 89.2% | 12.1% | 79.2% | 6.3% | 6% | 95.1% | 

Second part, led by results:

inhibition at 1 µM ([3]; Compound concentration: 1 μM) | SMILES | Cell survival rate/% (RAW 264.7 cells; RAW 264.7, 0.5 μM) | Cell survival rate/% (RAW 264.7 cells; RAW 264.7, 5 μM) | Cell survival rate/% (RAW 264.7 cells; RAW 264.7, 50 μM) | inhibition at 1 µM (TNF-α secretion in PBMC; TNF-α secretion in PBMC, 1 μM) | inhibition at 10 µM (TNF-α secretion in PBMC; TNF-α secretion in PBMC, 10 μM) | inhibition at 0.5 µM ([4]; RAW 264.7, 0.5 μM) | inhibition at 5 µM ([4]; RAW 264.7, 5 μM) | inhibition at 50 µM ([4]; RAW 264.7, 50 μM) | further results
92.2% | CCOc1cc2c(cc1OC)CCN(C(=O)COC)[C@H]2CCc1c[nH]c2ccccc12 [(S)-B12, (S)-1-(1-(2-(1H-indol-3-yl)ethyl)-7-ethoxy-6-methoxy-3,4-dihydroisoquinoline-2(1H)-yl)-2-methoxyethane-1-one] | 83.8% | 95.3% | 75.2% | 44.2% | 80.7% | -12.7% | 6.8% | 52.4% | IC50 [3, 5]: 0.00025 mM
19.2% | COc1cc2c(cc1OC1CCCC1)C(CCc1c[nH]c3ccccc13)N(C=O)CC2 (stereo not drawn) [Compound A2, 1-(2-(1H-indol-3-yl)ethyl)-7-(cyclopentyloxy)-6-metthoxy-3,4-dihydroisoquinoline-2(1H)-formaldehyde] | 111.6% | 113% | 55.1% |  | 43% | 9.7% | -4.4% | 99.4% | IC50 [3, 5]: 0.00299 mM
30.7% | COc1cc2c(cc1OC)C(CCc1c[nH]c3ccccc13)N(C(=O)c1ccncc1)CC2 (stereo not drawn) [Compound B1] | 78% | 74.9% | 78.8% | 39.8% | 58.5% | -2.4% | -17.8% | 67.9% | 
